Legend:
Format in all cases: in vivo
[1] = tested on: barnyardgrass (Echinochloa crus-galli); experiment: Test A preemergence, barnyardgrass; details: Echinochloa crus-galli, pre-emergence, 240 h, Preemergence, 0 to 100 scale (0 no effect, 100 complete control), read-out: Plant response rating, Barnyardgrass; for pest or weed control at 125 g/ha: 125 g ai/ha
Outline: (§1)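 Plants grown in pots of loam blended with sand were treated either before emergence, via directed soil spray, or after emergence at the one- to two-leaf stage. Following about 10 days in the greenhouse, each treatment was visually compared with untreated controls and rated from 0 (no effect) to 100 (complete control).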

kochia (Kochia scoparia) [2] = experiment: Test A preemergence, kochia; details: Bassia scoparia, pre-emergence, 240 h, Preemergence, 0 to 100 scale (0 no effect, 100 complete control), read-out: Plant response rating, Kochia; for pest or weed control at 125 g/ha: 125 g ai/ha
Outline: as §1

[3] = tested on: ryegrass, Italian (Italian ryegrass, Lolium multiflorum); experiment: Test A preemergence, Italian ryegrass; details: Lolium multiflorum, pre-emergence, 240 h, Preemergence, 0 to 100 scale (0 no effect, 100 complete control), read-out: Plant response rating, Ryegrass, Italian; for pest or weed control at 125 g/ha: 125 g ai/ha
Outline: as §1

[4] = tested on: pigweed (Amaranthus retroflexus); experiment: Test A preemergence, pigweed; details: Amaranthus retroflexus, pre-emergence, 240 h, Preemergence, 0 to 100 scale (0 no effect, 100 complete control), read-out: Plant response rating, Pigweed; for pest or weed control at 125 g/ha: 125 g ai/ha
Outline: as §1

kochia (Kochia scoparia) [5] = experiment: Test A postemergence, kochia; details: Bassia scoparia, post-emergence, 240 h, postemergence, 0 to 100 scale, 0 is no effect, 100 is complete control, approximately 10 days, read-out: Plant response rating, Kochia; for pest or weed control at 125 g/ha: 125 g ai/ha
Outline: as §1

[6] = tested on: ragweed (common ragweed, Ambrosia elatior); experiment: Test A postemergence, ragweed; details: Ambrosia artemisiifolia, post-emergence, 240 h, postemergence, 0 to 100 scale, 0 is no effect, 100 is complete control, approximately 10 days, read-out: Plant response rating, Ragweed; for pest or weed control at 125 g/ha: 125 g ai/ha
Outline: as §1

[7] = tested on: foxtail, giant (giant foxtail, Setaria faberii); experiment: Test A postemergence, giant foxtail; details: Setaria faberi, post-emergence, 240 h, postemergence, 0 to 100 scale, 0 is no effect, 100 is complete control, approximately 10 days, read-out: Plant response rating, Foxtail, Giant; for pest or weed control at 125 g/ha: 125 g ai/ha
Outline: as §1

[8] = tested on: pigweed (Amaranthus retroflexus); experiment: Test A postemergence, pigweed; details: Amaranthus retroflexus, post-emergence, 240 h, postemergence, 0 to 100 scale, 0 is no effect, 100 is complete control, approximately 10 days, read-out: Plant response rating, Pigweed; for pest or weed control at 125 g/ha: 125 g ai/ha
Outline: as §1

[9] = tested on: wheat (Triticum aestivum); experiment: Test A postemergence, wheat; details: Triticum aestivum, post-emergence, 240 h, postemergence, 0 to 100 scale, 0 is no effect, 100 is complete control, approximately 10 days, read-out: Plant response rating, Wheat; for plant injury at 125 g/ha: 125 g ai/ha
Outline: as §1

[10] = tested on: blackgrass (Alopecurus myosuroides); experiment: Test A postemergence, blackgrass; details: Alopecurus myosuroides, post-emergence, 240 h, postemergence, 0 to 100 scale, 0 is no effect, 100 is complete control, approximately 10 days, read-out: Plant response rating, Blackgrass; for pest or weed control at 125 g/ha: 125 g ai/ha
Outline: as §1

[11] = tested on: galium (catchweed bedstraw, Galium aparine); experiment: Test A postemergence, galium; details: Galium, post-emergence, 240 h, postemergence, 0 to 100 scale, 0 is no effect, 100 is complete control, approximately 10 days, read-out: Plant response rating, Galium; for pest or weed control at 125 g/ha: 125 g ai/ha
Outline: as §1

rice (Oryza sativa) = experiment: Test B flooded paddy test, rice; details: Oryza sativa; 250 g ai/ha, Flood; visual rating after 13 to 15 days; scale 0 to 100, 0 is no effect, 100 is complete control; read-out: Plant response rating, Rice
Outline: (§2)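 Plants grown to the 2-leaf stage; pots flooded to 3 cm above soil and compounds applied directly into the paddy water, depth held throughout. After 13 to 15 days in the greenhouse, injury was rated visually against untreated controls on a 0–100 scale (0 no effect, 100 complete control).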

[12] = tested on: sedge, umbrella (small-flower umbrella sedge, Cyperus difformis); experiment: Test B flooded paddy test, umbrella sedge; details: Cyperus difformis; 250 g ai/ha, Flood; visual rating after 13 to 15 days; scale 0 to 100, 0 is no effect, 100 is complete control; read-out: Plant response rating, Sedge, Umbrella
Outline: as §2

[13] = tested on: ducksalad (Heteranthera limosa); experiment: Test B flooded paddy test, ducksalad; details: Heteranthera limosa; 250 g ai/ha, Flood; visual rating after 13 to 15 days; scale 0 to 100, 0 is no effect, 100 is complete control; read-out: Plant response rating, Ducksalad
Outline: as §2

[14] = tested on: barnyardgrass (Echinochloa crus-galli); experiment: Test B flooded paddy test, barnyardgrass; details: Echinochloa crus-galli; 250 g ai/ha, Flood; visual rating after 13 to 15 days; scale 0 to 100, 0 is no effect, 100 is complete control; read-out: Plant response rating, Barnyardgrass
Outline: as §2

Work on `N#Cc1cccc(Oc2ncc(Cl)cn2)c1OCCC(F)(F)F` [Compound 23, 3-[(5-chloro-2-pyrimidinyl)oxy]-2-(3,3,3-trifluoropropoxy)benzonitrile] yielded a pest or weed control at 31 g/ha ([1]; 31 g ai/ha) of 70%, a pest or weed control at 125 g/ha [1] of 100% and a pest or weed control at 31 g/ha (kochia (Kochia scoparia) [2]; 31 g ai/ha) of 100%. For the same compound, the pest or weed control at 125 g/ha (kochia (Kochia scoparia) [2]) was 100%, the pest or weed control at 31 g/ha ([3]; 31 g ai/ha) was 0% and the pest or weed control at 125 g/ha [3] was 30%. The pest or weed control at 31 g/ha ([4]; 31 g ai/ha) was 100%, the pest or weed control at 125 g/ha [4] was 100% and the pest or weed control at 31 g/ha (kochia (Kochia scoparia) [5]; 31 g ai/ha) was 90%. The pest or weed control at 125 g/ha (kochia (Kochia scoparia) [5]) was 100%, the pest or weed control at 31 g/ha ([6]; 31 g ai/ha) was 0% and the pest or weed control at 125 g/ha [6] was 30%. For the same compound, the pest or weed control at 31 g/ha ([7]; 31 g ai/ha) was 20%, the pest or weed control at 125 g/ha [7] was 90% and the pest or weed control at 31 g/ha ([8]; 31 g ai/ha) was 100%. For the same compound, the pest or weed control at 125 g/ha [8] was 100%, the plant injury at 31 g/ha ([9]; 31 g ai/ha) was 20% and the plant injury at 125 g/ha [9] was 70%. It also gave a pest or weed control at 31 g/ha ([10]; 31 g ai/ha) of 20%, a pest or weed control at 125 g/ha [10] of 70% and a pest or weed control at 31 g/ha ([11]; 31 g ai/ha) of 60%. The pest or weed control at 125 g/ha [11] was 90%, the plant injury at 250 g/ha (rice (Oryza sativa)) was 30% and the pest or weed control at 250 g/ha [12] was 100%. For the same compound, the pest or weed control at 250 g/ha [13] was 100% and the pest or weed control at 250 g/ha [14] was 50%.
Compound `Fc1cccc(Oc2ncc(Cl)cn2)c1OCC(F)(F)F` [Compound 28] has a pest or weed control at 125 g/ha [1] of 10%, a pest or weed control at 500 g/ha ([1]; 500 g ai/ha) of 70% and a pest or weed control at 125 g/ha (kochia (Kochia scoparia) [2]) of 0%. It also gave a pest or weed control at 500 g/ha (kochia (Kochia scoparia) [2]; 500 g ai/ha) of 20%, a pest or weed control at 125 g/ha [3] of 0% and a pest or weed control at 500 g/ha ([3]; 500 g ai/ha) of 20%. The pest or weed control at 125 g/ha [4] was 0%, the pest or weed control at 500 g/ha ([4]; 500 g ai/ha) was 100% and the pest or weed control at 125 g/ha (kochia (Kochia scoparia) [5]) was 0%. For the same compound, the pest or weed control at 500 g/ha (kochia (Kochia scoparia) [5]; 500 g ai/ha) was 10%, the pest or weed control at 125 g/ha [6] was 0% and the pest or weed control at 500 g/ha ([6]; 500 g ai/ha) was 0%. For the same compound, the pest or weed control at 125 g/ha [7] was 0%, the pest or weed control at 500 g/ha ([7]; 500 g ai/ha) was 20% and the pest or weed control at 125 g/ha [8] was 30%. It also gave a pest or weed control at 500 g/ha ([8]; 500 g ai/ha) of 70%, a plant injury at 125 g/ha [9] of 0% and a plant injury at 500 g/ha ([9]; 500 g ai/ha) of 0%. The pest or weed control at 125 g/ha [10] was 0%, the pest or weed control at 500 g/ha ([10]; 500 g ai/ha) was 20% and the pest or weed control at 125 g/ha [11] was 0%. The pest or weed control at 500 g/ha ([11]; 500 g ai/ha) was 20%, the plant injury at 250 g/ha (rice (Oryza sativa)) was 0% and the pest or weed control at 250 g/ha [12] was 0%. For the same compound, the pest or weed control at 250 g/ha [13] was 30% and the pest or weed control at 250 g/ha [14] was 0%.
